Here are results for six compounds from ChEMBL document CHEMBL1136058, “4-Anilino-3-cyanobenzo[g]quinolines as kinase inhibitors” (Bioorg Med Chem Lett, 2002).

Assay [1] addresses T1, Proto-oncogene tyrosine-protein kinase Src (Homo sapiens, UniProt P12931). The experiment in a line: Inhibition of Src protein tyrosine kinase at 0.01 uM.
The target in assay [2] is T1, Proto-oncogene tyrosine-protein kinase Src. Briefly: Inhibition of Src protein tyrosine kinase at 0.1 uM.
The next assay concerns SW-620. The experiment in a line: Inhibition of SW620 cell proliferation. Particulars: Homo sapiens.
The target in assay [3] is Epidermal growth factor receptor (Homo sapiens, UniProt P00533). Briefly: Inhibition of epidermal growth factor receptor (EGFR).
Sequence of Epidermal growth factor receptor (P00533 whole entry): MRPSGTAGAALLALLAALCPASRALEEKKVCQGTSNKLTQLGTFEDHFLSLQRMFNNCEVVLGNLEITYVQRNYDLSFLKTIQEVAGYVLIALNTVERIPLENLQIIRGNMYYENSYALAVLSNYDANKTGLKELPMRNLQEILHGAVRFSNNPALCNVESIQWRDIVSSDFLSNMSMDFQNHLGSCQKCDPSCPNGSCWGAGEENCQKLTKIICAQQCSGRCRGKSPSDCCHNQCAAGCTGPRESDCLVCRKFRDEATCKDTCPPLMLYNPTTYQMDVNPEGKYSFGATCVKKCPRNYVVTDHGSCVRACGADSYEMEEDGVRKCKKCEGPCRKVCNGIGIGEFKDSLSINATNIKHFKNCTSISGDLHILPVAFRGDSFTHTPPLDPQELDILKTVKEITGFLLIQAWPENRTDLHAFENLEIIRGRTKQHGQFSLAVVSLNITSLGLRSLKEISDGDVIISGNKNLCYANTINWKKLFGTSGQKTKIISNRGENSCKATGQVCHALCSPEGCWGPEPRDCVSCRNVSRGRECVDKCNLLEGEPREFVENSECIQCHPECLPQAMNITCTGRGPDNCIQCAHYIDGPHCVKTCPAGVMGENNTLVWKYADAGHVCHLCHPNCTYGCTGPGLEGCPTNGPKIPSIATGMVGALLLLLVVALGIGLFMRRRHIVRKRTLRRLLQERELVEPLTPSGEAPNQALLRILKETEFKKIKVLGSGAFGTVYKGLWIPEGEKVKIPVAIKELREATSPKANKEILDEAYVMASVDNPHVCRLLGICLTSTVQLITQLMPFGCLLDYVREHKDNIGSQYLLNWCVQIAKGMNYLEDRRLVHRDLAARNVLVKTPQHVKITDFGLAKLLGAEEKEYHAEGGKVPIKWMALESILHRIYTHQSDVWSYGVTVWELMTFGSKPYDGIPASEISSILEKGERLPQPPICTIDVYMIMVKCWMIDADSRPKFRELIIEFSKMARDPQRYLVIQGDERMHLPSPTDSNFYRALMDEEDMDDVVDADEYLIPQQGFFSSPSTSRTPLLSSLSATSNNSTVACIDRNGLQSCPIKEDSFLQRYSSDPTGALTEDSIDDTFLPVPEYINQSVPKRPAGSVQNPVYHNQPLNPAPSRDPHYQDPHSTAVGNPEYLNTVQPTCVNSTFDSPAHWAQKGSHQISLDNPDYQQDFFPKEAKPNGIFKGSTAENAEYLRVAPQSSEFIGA
Assay [4] has as its target T1, Proto-oncogene tyrosine-protein kinase Src.
A further assay has as its system LoVo. The experiment in a line: Inhibition of LOVO cell proliferation. Particulars: Homo sapiens.
In assay [5] the target is Dual specificity mitogen-activated protein kinase kinase 1 (Homo sapiens, UniProt Q02750). The experiment in a line: Inhibition of Dual specificity mitogen-activated protein kinase kinase (MEK-1).
Sequence of Dual specificity mitogen-activated protein kinase kinase 1 (Q02750 whole entry): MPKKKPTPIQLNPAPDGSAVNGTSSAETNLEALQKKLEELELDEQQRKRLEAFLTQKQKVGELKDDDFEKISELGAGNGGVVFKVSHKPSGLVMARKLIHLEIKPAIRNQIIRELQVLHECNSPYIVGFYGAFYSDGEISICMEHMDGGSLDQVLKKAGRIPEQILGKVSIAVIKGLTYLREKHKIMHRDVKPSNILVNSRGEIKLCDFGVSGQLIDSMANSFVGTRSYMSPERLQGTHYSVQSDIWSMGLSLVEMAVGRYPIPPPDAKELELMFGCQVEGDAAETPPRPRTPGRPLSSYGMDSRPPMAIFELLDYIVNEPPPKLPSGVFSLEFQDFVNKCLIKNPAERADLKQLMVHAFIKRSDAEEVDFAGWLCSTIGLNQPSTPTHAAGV

pIC50: −log10 of the molar value.

T1 sequence (P12931 2-536 limits assumed): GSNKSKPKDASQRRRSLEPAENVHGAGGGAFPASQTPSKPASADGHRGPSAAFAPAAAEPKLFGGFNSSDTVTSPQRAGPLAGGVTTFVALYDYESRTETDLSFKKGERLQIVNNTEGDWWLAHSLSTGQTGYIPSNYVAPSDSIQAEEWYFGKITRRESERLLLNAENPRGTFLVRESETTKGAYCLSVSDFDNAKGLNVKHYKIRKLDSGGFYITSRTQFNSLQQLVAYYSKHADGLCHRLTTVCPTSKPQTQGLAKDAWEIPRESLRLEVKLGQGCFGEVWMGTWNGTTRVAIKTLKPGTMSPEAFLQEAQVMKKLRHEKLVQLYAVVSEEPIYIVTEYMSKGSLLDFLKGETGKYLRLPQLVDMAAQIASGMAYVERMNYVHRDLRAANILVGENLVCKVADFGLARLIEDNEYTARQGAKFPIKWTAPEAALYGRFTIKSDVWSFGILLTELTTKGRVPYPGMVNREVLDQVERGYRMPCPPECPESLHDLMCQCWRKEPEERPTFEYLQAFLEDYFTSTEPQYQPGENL

The term inhibition denotes how much of the control response was suppressed. Low readings indicate a weak effect, high ones a strong effect. For `N#Cc1cnc2cc3cc(O)c(O)cc3cc2c1Nc1ccc(Cl)cc1Cl`, the inhibition in assay [1] came out at 10%. Consider `COc1ccc2cc3c(Nc4ccc(Cl)cc4Cl)c(C#N)cnc3cc2c1`, for which, in assay [2], the inhibition is 30%.

Usually pIC50 stands for the IC50 on a negative log10 scale, so that one unit is a factor of ten. On to `COc1cc2cc3ncc(C#N)c(Nc4ccc(F)c(Cl)c4)c3cc2cc1OC`, for which the pIC50 in the assay with SW-620 was 5.70; in assay [3] it was 4.74.

In assay [4], `COc1cc2ncc(C#N)c(Nc3ccc(Cl)cc3Cl)c2cc1OC` showed a pIC50 of 7.42. As to `COc1cc2cc3ncc(C#N)c(Nc4ccc(Oc5ccccc5)cc4)c3cc2cc1OC`, the pIC50 in the assay on LoVo was 6.17; in assay [5], 8.00. As for `COc1ccc2cc3ncc(C#N)c(Nc4ccc(Cl)cc4Cl)c3cc2c1`, the inhibition in assay [2] is 30%.
